Measured values: patent US8637511B2, “Aminopyrimidines useful as kinase inhibitors” (Vertex Pharmaceuticals Incorporated, priority 2005, dated 2014)
pKi: −log10 of the molar value. Where two headings read alike, the source gives them in different places.

Legend:
Aurora-2 (Aurora A) = target: T1, Aurora-2 (Aurora A) (Homo sapiens, UniProt O14965); experiment: Aurora-2 (Aurora A) inhibition assay, coupled enzyme; assay type: biochemical
T1 sequence (O14965 1-403): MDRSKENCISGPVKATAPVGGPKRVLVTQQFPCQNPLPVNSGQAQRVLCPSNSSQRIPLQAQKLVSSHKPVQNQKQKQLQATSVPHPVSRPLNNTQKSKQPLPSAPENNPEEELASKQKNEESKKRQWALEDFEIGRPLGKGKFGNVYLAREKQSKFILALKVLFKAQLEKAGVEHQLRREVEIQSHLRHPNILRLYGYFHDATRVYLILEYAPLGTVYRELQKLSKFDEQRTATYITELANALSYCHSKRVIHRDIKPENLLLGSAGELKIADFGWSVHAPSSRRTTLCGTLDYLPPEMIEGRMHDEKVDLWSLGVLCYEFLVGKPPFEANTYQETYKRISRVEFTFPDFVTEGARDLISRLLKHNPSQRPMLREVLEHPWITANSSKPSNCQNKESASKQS
In short: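 These rates came from NADH consumption coupled through pyruvate kinase and lactate dehydrogenase (100 mM Hepes pH 7.5, 10 mM MgCl2, 300 μM NADH). Aurora-2 was present at 40 nM, and the reaction ran at 30 °C after a 10 min preincubation.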

FLT-3 = target: T2, FLT-3 (Homo sapiens, UniProt P36888); experiment: FLT-3 inhibition assay, radiometric filter-binding; assay type: biochemical
T2 sequence (P36888 27-993): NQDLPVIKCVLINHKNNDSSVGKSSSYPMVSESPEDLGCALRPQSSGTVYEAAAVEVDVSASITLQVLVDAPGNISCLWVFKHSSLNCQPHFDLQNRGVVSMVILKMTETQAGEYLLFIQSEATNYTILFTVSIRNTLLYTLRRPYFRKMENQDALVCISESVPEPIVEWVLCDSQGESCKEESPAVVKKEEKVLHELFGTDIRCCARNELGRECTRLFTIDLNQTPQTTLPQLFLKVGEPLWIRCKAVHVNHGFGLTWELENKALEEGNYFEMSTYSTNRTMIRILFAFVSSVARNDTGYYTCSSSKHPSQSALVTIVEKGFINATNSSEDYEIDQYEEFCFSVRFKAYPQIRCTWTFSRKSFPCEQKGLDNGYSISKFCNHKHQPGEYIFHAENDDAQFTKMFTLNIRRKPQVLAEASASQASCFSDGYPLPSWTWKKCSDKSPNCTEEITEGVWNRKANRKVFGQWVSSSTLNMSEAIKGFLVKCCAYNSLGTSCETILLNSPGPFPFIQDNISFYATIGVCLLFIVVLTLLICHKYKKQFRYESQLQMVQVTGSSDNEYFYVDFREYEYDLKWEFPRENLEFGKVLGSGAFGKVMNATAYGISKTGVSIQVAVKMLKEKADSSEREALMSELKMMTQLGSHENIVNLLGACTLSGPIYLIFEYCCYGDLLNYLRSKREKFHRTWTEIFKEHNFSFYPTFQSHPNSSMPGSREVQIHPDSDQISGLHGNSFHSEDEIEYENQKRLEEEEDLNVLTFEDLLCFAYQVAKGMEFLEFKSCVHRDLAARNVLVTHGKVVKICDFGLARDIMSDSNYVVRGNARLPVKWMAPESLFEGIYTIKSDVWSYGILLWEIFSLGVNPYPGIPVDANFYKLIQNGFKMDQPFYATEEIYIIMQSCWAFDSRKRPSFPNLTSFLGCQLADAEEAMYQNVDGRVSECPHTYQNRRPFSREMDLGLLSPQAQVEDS
Experimental: This assay monitors the 33P incorporation into a substrate poly(Glu, Tyr) 4:1 (pE4Y). […] Final substrate concentrations in the assay were 90 μM ATP and 0.5 mg/ml pE4Y (both from Sigma Chemicals, St. Louis, Mo.). […] Reactions were carried out at room temperature.
Two assay solutions were prepared. Solution 1 contains 100 mM HEPES (pH 7.5), 10 mM MgCl2, 25 mM NaCl, 1 mg/ml pE4Y and […] (containing 0.3 mCi of [γ-33^P]ATP for each reaction). Solution 2 contains 100 mM HEPES (pH 7.5), 10 mM MgCl2, 25 mM NaCl, 2 mM DTT, 0.02% BSA and 3 nM FLT-3. The assay was run on a 96 well plate by mixing 50 μl each of Solution 1 and […] of the compounds of the present invention. The reaction was initiated with Solution 2. […] All of the reaction volume was then transferred to a filter plate and washed with 5% TCA by a Harvester 9600 from TOMTEC (Hamden, Conn.). The amount of ^33P incorporation into pE4y was analyzed by a Packard Top Count Microplate Scintillation Counter (Meriden, Conn.). The data was fitted using Prism software to get an IC50 or Ki.

[1] = read-out: Aurora A kinase Ki value

SMILES | pKi (Aurora-2 (Aurora A); [1]) | pKi (FLT-3; read-out: FLT-3 Ki value) | pKi (Aurora-2 (Aurora A)) | pKi (FLT-3)
Cc1cc(Nc2cc(N3CCC3)nc(Sc3ccc(NC(=O)CCC(F)(F)F)cc3)n2)[nH]n1 [Compound 121] | 8.30 to 9.00 | 6.82 to 7.30 | – | –
Cc1ccc(S(=O)(=O)Nc2ccc(Sc3nc(Nc4cc(C)[nH]n4)cc(N4CCC4)n3)cc2)cc1 [Compound 27] | – | – | 8.30 to 9.00 | 6.82 to 7.30
Cc1cc(Nc2cc(N3CCC3)nc(Sc3ccc(C(=O)NC4CCCC4)cc3)n2)n[nH]1 [Compound 23] | 6.70 to 8.30 | 6.00 to 6.82 | – | –
Cc1cnc(Nc2cc(N3CC(N(C)C)C3)nc(Sc3ccc(NC(=O)C4CC4)cc3)n2)s1 [Compound 1] | 6.70 to 8.30 | – | – | 6.82 to 7.30
Cc1cc(Nc2cc(N3CCC3)nc(Sc3ccc(NC(=O)C4CC4(F)F)cc3)n2)[nH]n1 (stereo not shown) [Compound 112] | 8.30 to 9.00 | ≥ 7.30 | – | –
Cc1cnc(Nc2cc(N3CC(O)C3)nc(Sc3ccc(NC(=O)C4CC4)cc3)n2)s1 [Compound 3] | 8.30 to 9.00 | – | – | ≥ 7.30
CCC(=O)Nc1ccc(Sc2nc(C#CC(C)(C)N3CCC3)cc(Nc3cc(C)n[nH]3)n2)cc1 [Compound 77] | 8.30 to 9.00 | – | – | 6.00 to 6.82
Cc1cc(Nc2cc(N3CCC3)nc(Sc3ccc(N)cc3)n2)[nH]n1 [Compound 108] | 6.70 to 8.30 | ≥ 7.30 | – | –
Cc1cc(Nc2cc(N3CCC3)nc(Sc3ccc(NC(=O)Cc4ccccc4)cc3)n2)n[nH]1 [Compound 35] | 8.30 to 9.00 | – | – | 6.82 to 7.30
Cc1cc(Nc2cc(N3CCC3)nc(Sc3cccc(NC(=O)c4ccccc4Cl)c3)n2)[nH]n1 [Compound 49] | 6.70 to 8.30 | – | – | 6.00 to 6.82
Cc1cc(Nc2cc(N3CC(C)C3)nc(Sc3ccc(NC(=O)c4ccccc4Cl)cc3)n2)n[nH]1 [Compound 39] | 8.30 to 9.00 | – | – | 6.82 to 7.30
Cc1cc(Nc2cc(N3CCC3)nc(Sc3ccc(NC(=O)c4c(F)cccc4N4CCC4)cc3)n2)n[nH]1 [Compound 8] | 8.30 to 9.00 | – | – | 6.82 to 7.30
CCC(=O)Nc1ccc(Sc2nc(Nc3cc(C)n[nH]3)cc(N3CC(O)(C(C)(C)C)C3)n2)cc1 [Compound 81] | ≥ 9.00 | ≥ 7.30 | – | –
Cc1cc(Nc2cc(N3CCC3)nc(Sc3ccc(NC(=O)Cc4cccc(Cl)c4)cc3)n2)[nH]n1 [Compound 58] | 8.30 to 9.00 | 6.00 to 6.82 | – | –
CCC(=O)Nc1ccc(Sc2nc(Nc3cc(C)n[nH]3)cc(N3CC(C)(OC(C)C)C3)n2)cc1 [Compound 95] | 8.30 to 9.00 | – | – | 6.82 to 7.30
CCC(=O)Nc1ccc(Sc2nc(Nc3cc(C)n[nH]3)cc(N3CC(C)(NC(C)(C)C)C3)n2)cc1 [Compound 80] | 8.30 to 9.00 | 6.82 to 7.30 | – | –
Cc1cc(Nc2cc(N3CC(N4CC[C@H](F)C4)C3)nc(Sc3ccc4ncccc4c3)n2)n[nH]1 [Compound 160] | – | – | ≥ 9.00 | ≥ 7.30
Cc1cc(Nc2cc(N3CC(O)(C4CC4)C3)nc(Sc3ccc4ccccc4c3)n2)n[nH]1 [Compound 131] | ≥ 9.00 | – | – | ≥ 7.30
Cc1cc(Nc2cc(N3CC(F)(C4CC4)C3)nc(Sc3ccc4nc(C(F)(F)F)cn4c3)n2)[nH]n1 [Compound 190] | 8.30 to 9.00 | – | – | 6.00 to 6.82
Cc1cc(Nc2cc(N3CCC3)nc(Sc3ccc(NC(=O)c4ocnc4C)cc3)n2)n[nH]1 [Compound 167] | 6.70 to 8.30 | – | – | 6.00 to 6.82
Cc1ccc(C(=O)Nc2ccc(Sc3nc(Nc4cc(C)[nH]n4)cc(N4CCC4)n3)cc2)cc1 [Compound 28] | – | – | 8.30 to 9.00 | 6.00 to 6.82
Cc1cc(Nc2cc(N3CC(F)C3)nc(Sc3ccc(NC(=O)c4ccccc4Cl)cc3)n2)[nH]n1 [Compound 60] | 8.30 to 9.00 | 6.82 to 7.30 | – | –

SMILES | pKi (Aurora-2 (Aurora A); [1]) | pKi (FLT-3; read-out: FLT-3 Ki value) | pKi (Aurora-2 (Aurora A)) | pKi (FLT-3)
COc1ccc(C(=O)Nc2ccc(Sc3nc(Nc4cc(C)n[nH]4)cc(N4CCC4)n3)cc2)cc1 [Compound 117] | 8.30 to 9.00 | 6.00 to 6.82 | – | –
CCC(=O)Nc1ccc(Sc2nc(Nc3cc(C)n[nH]3)cc(N3CC(C)(O)C3)n2)cc1 [Compound 71] | 8.30 to 9.00 | 6.82 to 7.30 | – | –
Cc1cc(Nc2cc(N3CCC3)nc(Sc3ccc(NC(=O)c4ccccc4N(C)C)cc3)n2)[nH]n1 [Compound 124] | 6.70 to 8.30 | 6.00 to 6.82 | – | –
Cc1cc(Nc2cc(N3CCC3)nc(Sc3ccc(NC(=O)c4ccc(F)cc4F)cc3)n2)n[nH]1 [Compound 44] | 8.30 to 9.00 | – | – | 6.00 to 6.82
Cc1cc(Nc2cc(N3CC(N4CCCC4)C3)nc(Sc3ccc4ncccc4c3)n2)n[nH]1 [Compound 159] | 8.30 to 9.00 | – | – | ≥ 7.30
Cc1cc(Nc2cc(N3CCC3)nc(Sc3ccc(NC(=O)c4ccc(Cl)cc4)cc3)n2)n[nH]1 [Compound 54] | – | – | 8.30 to 9.00 | 6.00 to 6.82
Cc1cc(Nc2cc(N3CCC3)nc(Sc3ccc(C(=O)N4CCCC4)cc3)n2)n[nH]1 [Compound 22] | – | – | 6.70 to 8.30 | 6.82 to 7.30
Cc1cc(Nc2cc(N3CCC3)nc(Sc3ccc(NC(=O)C(C)CC(F)(F)F)cc3)n2)[nH]n1 (stereo not shown) [Compound 127] | 8.30 to 9.00 | 6.00 to 6.82 | – | –
Cc1cc(Nc2cc(N3CCC3)nc(Sc3ccc(NC(=O)C(F)(F)F)cc3)n2)[nH]n1 [Compound 158] | 8.30 to 9.00 | 6.82 to 7.30 | – | –
CCCNC(=O)Nc1ccc(Sc2nc(Nc3cc(C)[nH]n3)cc(N3CCC3)n2)cc1 [Compound 73] | 6.70 to 8.30 | – | – | 6.82 to 7.30
Cc1cc(Nc2cc(N3CC(F)(C4CC4)C3)nc(Sc3ccc(-c4ncc(C)o4)cc3)n2)[nH]n1 [Compound 175] | 6.70 to 8.30 | – | – | 6.00 to 6.82
CCNC(=O)c1ccc(Sc2nc(Nc3cc(C)[nH]n3)cc(N3CCC3)n2)cc1 [Compound 20] | – | – | 6.70 to 8.30 | 6.82 to 7.30
Cc1cnc(Nc2cc(N3CCC3)nc(Sc3ccc(NC(=O)C4CC4)cc3)n2)s1 [Compound 4] | 8.30 to 9.00 | – | – | 6.82 to 7.30
Cc1cc(Nc2cc(N3CC(C)(O)C3)nc(Sc3ccc(NC(=O)c4ccccc4C(F)(F)F)cc3)n2)[nH]n1 [Compound 115] | – | – | ≥ 9.00 | 6.82 to 7.30
Cc1cc(Nc2cc(N3CCC3)nc(Sc3ccc(NC(=O)C4CCCCC4)cc3)n2)n[nH]1 [Compound 30] | 8.30 to 9.00 | 6.00 to 6.82 | – | –
Cc1cc(Nc2cc(N3CCC3)nc(Oc3ccc(NC(=O)c4ccccc4C(F)(F)F)cc3)n2)[nH]n1 [Compound 134] | 8.30 to 9.00 | – | – | 6.82 to 7.30
CCC(=O)Nc1ccc(Sc2nc(Nc3cc(C4CC4)n[nH]3)cc(N3CC(C)(O)C3)n2)cc1 [Compound 76] | 8.30 to 9.00 | – | – | ≥ 7.30
COC1CN(c2cc(Nc3cc(C)n[nH]3)nc(Sc3ccc(NC(=O)c4ccccc4C(F)(F)F)cc3)n2)C1 [Compound 126] | ≥ 9.00 | – | – | 6.82 to 7.30
CC1=NN=C(Nc2cc(N3CCC3)nc(Sc3ccc(NC(=O)C4CCCN4C)cc3)n2)C1 (stereo not shown) [Compound 6] | 6.70 to 8.30 | – | – | 6.00 to 6.82
CCC(=O)Nc1ccc(Sc2nc(Nc3cc(C)n[nH]3)cc(N3CC(C)(OC(C)(C)C)C3)n2)cc1 [Compound 96] | 8.30 to 9.00 | 6.82 to 7.30 | – | –
Cc1cc(Nc2cc(N3CCC3)nc(Sc3ccc(NC(=O)NCc4ccccc4)cc3)n2)n[nH]1 [Compound 74] | 6.70 to 8.30 | – | – | 6.82 to 7.30
Cc1cc(Nc2cc(N3CCC3)nc(Sc3ccc(N(C)C(=O)c4ccccc4F)cc3)n2)n[nH]1 [Compound 10] | 6.70 to 8.30 | – | – | 6.82 to 7.30
